The series in a line: Plasma levels of florfenicol / pharmacokinetic analysis in cattle after subcutaneous administration. Type of series: in vivo. The settings on record: bovine, sc, 40 mg/kg, subcutaneous florfenicol solution, 40 mg per kg of body weight. The protocol: Twenty-four head of cattle were used in the study as described below and were administered the formulations of the present invention. Serial blood samples were drawn at time 0 prior to dosing, then at 0.5, 1, 3, 6, 9, 12, 24, 36, 48, 60 and 72 hours post injection. The animals received one of the following treatment regimens.
The study was carried out in bovines of approximately 6 months of age or more that weigh about 125 kg or more. Selection was based on health status appearance, tractability and body weight. […] Animals that had received medication or have participated in another study in the previous 14 days were excluded from this study.
Plasma Levels of florfenicol were taken as follows: Approximately 10 mL of blood was collected from each calf by jugular venipuncture into a Vacutainer® tube containing sodium EDTA and processed for plasma.
Pharmacokinetic Analysis was carried out as follows: Plasma concentrations of florfenicol was reported in the appropriate units (i.e. μg/ml or ng/mL). Plasma florfenicol concentration versus time data was graphically presented for each individual animal, and as mean concentrations for the overall sample population.

Where two headings read alike, the source gives them in different places.

As to `CS(=O)(=O)c1ccc([C@@H](O)[C@@H](CF)NC(=O)C(Cl)Cl)cc1` [florfenicol, D-(threo)-1-p-methylsulfonyl phenyl-2-dichloroacetamido-3-fluoro-1-propanol], the Cmax (FIG. 1, six cattle, read-out: Mean peak concentration (Cmax)) came to 6370 ng/mL; the Cmax (FIG. 1, six cattle, read-out: Range of peak concentration (Cmax)) fell in the range of 5080 to 7000 ng/mL; the Cmax (FIG. 2, six cattle, read-out: Mean peak concentration (Cmax)) came to 4250 ng/mL; the Cmax (FIG. 2, six cattle, read-out: Range of peak concentration (Cmax)) is 3460 to 5000 ng/mL. For the same molecule, the Tmax is 5.5 h (FIG. 1, six cattle, read-out: Mean time to peak concentration (Tmax)); 3 to 6 h (FIG. 1, six cattle, read-out: Range of time to peak concentration (Tmax)); 3.67 h (FIG. 2, six cattle, read-out: Mean time to peak concentration (Tmax)); 1 to 9 h (FIG. 2, six cattle, read-out: Range of time to peak concentration (Tmax)).

The values are drawn from patent US9084719B2, “Compositions and method for treating infection in cattle and swine” (Intervet Inc., priority 2003, dated 2015).
